From article PMC8623851, “The Structural Determinants for α1-Adrenergic/Serotonin Receptors Activity among Phenylpiperazine-Hydantoin Derivatives” (Molecules, 2021)
Read-outs that look alike come from different tables or passages of the source.

Key:
α1-receptor [1] = assay: Radioligand binding assay: affinity for α1-receptor ([3H]Prazosin, rat cortex)
Experimental: Tissue (rat cortex) was homogenized in 20 volumes of ice-cold 50 mM Tris-HCl buffer, pH 7.6, using an Ultra Turrax T25B homogenizer (IKA, Staufen, Germany). The homogenate was centrifuged at 20,000× g for 20 min. The resulting supernatant was decanted and pellet was resuspended in the same buffer and centrifuged again in the same conditions. The final pellet was resuspended in an appropriate volume of buffer (10 mg/1 mL).
The concentrations of analyzed compounds ranged from 10^−10 to 10^−5 M.
The incubation was terminated by rapid filtration over glass fiber filters FilterMate B (PerkinElmer, Waltham, MA, USA) using a 96-well FilterMate harvester (PerkinElmer, Waltham, MA, USA). Five rapid washes were performed with ice-cold 50 mM Tris-HCl buffer, pH 7.6.
The FilterMate was dried in a microwave and placed in a plastic bag (PerkinElmer, Waltham, MA, USA) and soaked in 10 mL of a liquid scintillation cocktail Ultima Gold MV (PerkinElmer, Waltham, MA, USA). After even distribution of the scintillation cocktail, the filter bag was sealed.
The radioactivity on the filter was measured by a MicroBeta TriLux 1450 scintillation counter (PerkinElmer, Waltham, MA, USA).
Radioligand binding data were analyzed using iterative curve fitting routines GraphPad Prism 3.0 (GraphPad Software, San Diego, CA, USA) using the built-in three parameter logistic model describing ligand competition binding to radioligand-labeled sites.

human 5-HT6 receptor = human 5-HT6 receptor (Homo sapiens, UniProt P50406); assay: Radioligand binding assay 5-HT6 (HEK-293 membranes, [3H]-LSD)
Chain of human 5-HT6 receptor (P50406 whole entry): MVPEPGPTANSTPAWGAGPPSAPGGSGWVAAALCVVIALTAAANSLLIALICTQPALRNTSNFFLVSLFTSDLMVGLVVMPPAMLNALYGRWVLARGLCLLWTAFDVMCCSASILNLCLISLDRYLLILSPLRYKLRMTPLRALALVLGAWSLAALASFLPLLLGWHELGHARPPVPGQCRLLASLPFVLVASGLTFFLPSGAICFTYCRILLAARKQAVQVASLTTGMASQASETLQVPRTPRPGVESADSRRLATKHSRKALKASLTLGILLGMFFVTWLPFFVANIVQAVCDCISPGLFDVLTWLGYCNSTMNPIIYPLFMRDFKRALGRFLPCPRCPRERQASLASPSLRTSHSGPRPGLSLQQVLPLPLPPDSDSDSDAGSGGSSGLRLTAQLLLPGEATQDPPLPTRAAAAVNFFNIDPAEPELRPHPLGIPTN

human 5-HT7b receptor = human 5-HT7b receptor (Homo sapiens, UniProt P34969); assay: Radioligand binding assay 5-HT7 (HEK-293 membranes, [3H]-5-CT)
Chain of human 5-HT7b receptor (P34969 1-432): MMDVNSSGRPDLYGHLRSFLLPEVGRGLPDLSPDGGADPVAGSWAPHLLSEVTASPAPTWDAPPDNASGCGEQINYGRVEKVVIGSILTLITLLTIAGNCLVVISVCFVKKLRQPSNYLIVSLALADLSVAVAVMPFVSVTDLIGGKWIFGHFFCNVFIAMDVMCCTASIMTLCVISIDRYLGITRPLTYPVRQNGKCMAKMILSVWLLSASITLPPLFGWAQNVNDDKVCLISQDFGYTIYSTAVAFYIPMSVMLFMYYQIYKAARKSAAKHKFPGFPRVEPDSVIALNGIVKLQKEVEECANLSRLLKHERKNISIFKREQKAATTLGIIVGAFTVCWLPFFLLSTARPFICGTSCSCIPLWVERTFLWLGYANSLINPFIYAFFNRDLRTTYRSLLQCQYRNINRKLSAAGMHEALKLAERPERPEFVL

human 5-HT1A receptor = biological target: T1, human 5-HT1A receptor (Homo sapiens, UniProt P08908); assay: Radioligand binding assay 5-HT1A (HEK-293 membranes, [3H]-8-OH-DPAT)
T1 sequence (P08908 1-422): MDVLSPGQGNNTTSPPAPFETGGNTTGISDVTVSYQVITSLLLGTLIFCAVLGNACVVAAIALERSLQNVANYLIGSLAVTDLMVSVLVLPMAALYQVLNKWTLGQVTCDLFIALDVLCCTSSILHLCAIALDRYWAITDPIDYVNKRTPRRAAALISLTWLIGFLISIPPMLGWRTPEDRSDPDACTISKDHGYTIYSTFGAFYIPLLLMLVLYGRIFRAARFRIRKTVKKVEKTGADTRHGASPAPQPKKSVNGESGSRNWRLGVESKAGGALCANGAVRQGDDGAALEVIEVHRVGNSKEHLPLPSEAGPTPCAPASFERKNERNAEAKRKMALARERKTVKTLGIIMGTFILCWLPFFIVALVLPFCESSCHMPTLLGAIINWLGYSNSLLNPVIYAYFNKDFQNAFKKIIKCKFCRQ

5-HT1AR = biological target: 5-HT1AR; parameters: method as in PMID 31330215; conditions: cited from earlier work
5-HT2AR = biological target: 5-HT2AR; parameters: method as in PMID 31330215; conditions: cited from earlier work
α1AR = biological target: α1AR; parameters: method as in PMID 31330215; conditions: cited from earlier work
α1BR = biological target: α1BR; parameters: method as in PMID 31330215; conditions: cited from earlier work
α1DR = biological target: α1DR; parameters: method as in PMID 31330215; conditions: cited from earlier work
behavioral models = test system: behavioral models; parameters: method as in PMID 31330215; conditions: cited from earlier work
α1A-AR = biological target: T2, α1A-AR (Homo sapiens, UniProt P35348); assay: Intrinsic (functional) activity for α1A-AR; type: cell-based; conditions: antagonist potency; α1A-AR in rat tail artery (table title); 4–7 experimental results; read-out: IC50 ± SEM α1A-AR
T2 sequence (P35348 1-466): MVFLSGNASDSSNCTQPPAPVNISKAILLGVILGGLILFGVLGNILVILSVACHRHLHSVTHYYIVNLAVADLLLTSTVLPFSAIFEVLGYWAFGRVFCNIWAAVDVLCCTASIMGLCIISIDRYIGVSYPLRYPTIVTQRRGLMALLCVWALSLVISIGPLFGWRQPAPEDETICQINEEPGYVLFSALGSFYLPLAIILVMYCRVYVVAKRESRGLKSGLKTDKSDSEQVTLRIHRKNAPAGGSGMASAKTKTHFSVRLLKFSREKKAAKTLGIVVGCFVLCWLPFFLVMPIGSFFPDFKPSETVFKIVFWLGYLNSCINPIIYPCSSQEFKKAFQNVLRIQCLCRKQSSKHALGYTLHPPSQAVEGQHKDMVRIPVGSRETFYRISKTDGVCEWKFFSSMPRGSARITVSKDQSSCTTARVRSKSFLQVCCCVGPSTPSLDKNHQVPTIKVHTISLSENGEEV

α1B-AR = biological target: T3, α1B-AR (Homo sapiens, UniProt P35368); assay: Intrinsic (functional) activity for α1B-AR (Aequoscreen); type: cell-based; conditions: antagonist potency; α1B-AR in mouse spleen (table title); 4–7 experimental results; read-out: IC50 ± SEM α1B-AR
T3 construct: expressed in transfected cells; host or cells: recombinant Aequoscreen cell line (frozen, ready to use)
T3 sequence (P35368 1-520): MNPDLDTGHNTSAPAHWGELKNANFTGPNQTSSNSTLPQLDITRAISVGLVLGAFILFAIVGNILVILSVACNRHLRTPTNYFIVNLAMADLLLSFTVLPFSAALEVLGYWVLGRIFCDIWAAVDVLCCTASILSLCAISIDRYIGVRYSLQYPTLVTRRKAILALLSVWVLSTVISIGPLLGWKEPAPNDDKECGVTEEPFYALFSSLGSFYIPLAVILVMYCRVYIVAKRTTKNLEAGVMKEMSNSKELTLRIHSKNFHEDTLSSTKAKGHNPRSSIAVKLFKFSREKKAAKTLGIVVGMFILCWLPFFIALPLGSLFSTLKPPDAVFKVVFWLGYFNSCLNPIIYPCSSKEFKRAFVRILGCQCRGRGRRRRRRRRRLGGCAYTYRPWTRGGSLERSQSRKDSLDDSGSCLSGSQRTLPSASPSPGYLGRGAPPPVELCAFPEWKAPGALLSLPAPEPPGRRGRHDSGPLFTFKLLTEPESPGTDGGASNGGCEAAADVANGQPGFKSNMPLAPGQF

α1-receptor [2] = biological target: α1-receptor; parameters: method as in PMID 31383628, PMID 29425815; conditions: previously reported arylpiperazine hydantoin derivatives; cited from earlier work

Row | Ki (α1-receptor [1]) [nM] | melting point [°C] | Ki (human 5-HT6 receptor) [µM] | Ki (human 5-HT7b receptor) [nM] | Ki (human 5-HT1A receptor) [nM] | SMILES | other results
1 | 145 ± 13.3 | 176 to 178 | 20.4 | 197 | 282 | COc1ccc(/C=C2\NC(=O)N(CC(O)CN3CCN(c4ccccc4OC)CC3)C2=O)cc1 (centres unmarked) [Compound 6, (Z)-3-(2-hydroxy-3-(4-(2-methoxyphenyl)piperazin-1-yl)propyl)-5-(4-methoxybenzylidene)imidazolidine-2,4-dione] | –
2 | 15.7 ± 1.5 | – | – | – | – | Cc1ccc(N(CC2=NCCN2)c2cccc(O)c2)cc1 [fentolamine, reference compound] | –
3 | 44.8 ± 3.3 | 144 to 146 | 1.72 | 152 | 319 | COc1cccc(/C=C2\NC(=O)N(CCCN3CCN(c4ccccc4Cl)CC3)C2=O)c1 [Compound 11, (Z)-3-(3-(4-(2-chlorophenyl)piperazin-1-yl)propyl)-5-(3-methoxybenzylidene)imidazolidine-2,4-dione] | –
4 | 75.9 ± 2.3 | – | 19.2 | 79 | 557 | CCOc1ccccc1N1CCN(CC(O)CN2C(=O)N/C(=C\c3cccc(OC)c3)C2=O)CC1 (centres unmarked) [Compound 5, (Z)-3-(3-(4-(2-ethoxyphenyl)piperazin-1-yl)-2-hydroxypropyl)-5-(3-methoxybenzylidene)imidazolidine-2,4-dione] | –
5 | – | – | – | – | – | COc1ccccc1N1CCN(CCn2cnc3ccccc3c2=O)CC1 [ACH-000029] | Ki (5-HT1AR): 14 nM; Ki (5-HT2AR): 500 nM; Ki (α1AR): 0.07 nM; Ki (α1BR): 4.6 nM; Ki (α1DR): 1.1 nM; anxiolytic activity (behavioral models): anxiolytic activity in behavioral models
6 | 34.6 ± 4.6 | – | 22 | 101 | 20.6 | COc1ccc(/C=C2\NC(=O)N(CCCN3CCN(c4ccccc4OC)CC3)C2=O)cc1 [Compound 12, (Z)-5-(4-methoxybenzylidene)-3-(3-(4-(2-methoxyphenyl)piperazin-1-yl)propyl)imidazolidine-2,4-dione] | IC50 (α1A-AR): 12.8 ± 2.5 nM; IC50 (α1B-AR): 8.5 ± 1.1 nM
7 | 25.8 ± 2.9 | 130 to 132 | 12.3 | 668 | 172 | COc1ccccc1N1CCN(CCCN2C(=O)N/C(=C\c3cc(OC)c(OC)c(OC)c3)C2=O)CC1 [Compound 15, (Z)-3-(3-(4-(2-methoxyphenyl)piperazin-1-yl)propyl)-5-(3,4,5-trimethoxybenzylidene)imidazolidine-2,4-dione] | –
8 | 187 ± 18.6 | – | 17.6 | 283 | 530 | COc1cccc(/C=C2\NC(=O)N(CC(O)CN3CCN(c4ccccc4OC)CC3)C2=O)c1 (centres unmarked) [Compound 4, (Z)-3-(2-hydroxy-3-(4-(2-methoxyphenyl)piperazin-1-yl)propyl)-5-(3-methoxybenzylidene)imidazolidine-2,4-dione] | –
9 | 89.5 ± 9 | 104 to 106 | 2.83 | 1250 | 1870 | CCOc1ccccc1N1CCN(CC(O)CN2C(=O)N/C(=C\c3cc(OC)c(OC)c(OC)c3)C2=O)CC1 (centres unmarked) [Compound 9, (Z)-3-(3-(4-(2-ethoxyphenyl)piperazin-1-yl)-2-hydroxypropyl)-5-(3,4,5-trimethoxybenzylidene)imidazolidine-2,4-dione] | –
10 | – | – | – | – | – | COc1ccc(/C=C2\NC(=O)N(CC(O)CN3CCN(c4ccccc4OC)CC3)C2=O)cc1OC (centres unmarked) [Compound 1] | Ki (α1-receptor [2]): 44.5 nM
11 | 19.5 ± 2.6 | 180 to 183 | > 50 | 114 | 45.8 | CCOc1ccccc1N1CCN(CCCN2C(=O)N/C(=C\c3ccc(OC)cc3)C2=O)CC1 [Compound 13, (Z)-3-(3-(4-(2-ethoxyphenyl)piperazin-1-yl)propyl)-5-(4-methoxybenzylidene)imidazolidine-2,4-dione] | –
12 | 11.9 ± 2.2 | – | 15.8 | 189 | 128 | COc1ccc(/C=C2\NC(=O)N(CCCN3CCN(c4ccccc4OC)CC3)C2=O)cc1OC [Compound 14] | IC50 (α1A-AR): 57.6 ± 7.2 nM; IC50 (α1B-AR): 182 ± 21.4 nM
13 | 14.7 ± 1.1 | – | 15.2 | 138 | 165 | CCOc1ccccc1N1CCN(CCCN2C(=O)N/C(=C\c3cc(OC)c(OC)c(OC)c3)C2=O)CC1 [Compound 16, (Z)-3-(3-(4-(2-ethoxyphenyl)piperazin-1-yl)propyl)-5-(3,4,5-trimethoxybenzylidene)imidazolidine-2,4-dione] | IC50 (α1A-AR): 19.1 ± 3.4 nM; IC50 (α1B-AR): 0.82 ± 0.1 nM
14 | 20.2 ± 4.1 | – | – | – | 103 | CCOc1ccccc1N1CCN(CCCN2C(=O)N/C(=C\c3cccc(OC)c3)C2=O)CC1 [Compound 10, (Z)-3-(3-(4-(2-ethoxyphenyl)piperazin-1-yl)propyl)-5-(3-methoxybenzylidene)imidazolidine-2,4-dione] | IC50 (α1A-AR): 7.2 ± 1.1 nM; IC50 (α1B-AR): 9.2 ± 1.3 nM
15 | – | – | – | – | – | CCOc1ccccc1OCCN[C@H](C)Cc1ccc(OC)c(S(N)(=O)=O)c1 [Tamsulosin, reference compound] | IC50 (α1B-AR): 0.13 ± 0.02 nM
16 | 99.1 ± 11.3 | – | 10.2 | 120 | 313 | CCOc1ccccc1N1CCN(CC(O)CN2C(=O)N/C(=C\c3ccc(OC)cc3)C2=O)CC1 (centres unmarked) [Compound 7, (Z)-3-(3-(4-(2-ethoxyphenyl)piperazin-1-yl)-2-hydroxypropyl)-5-(4-methoxybenzylidene)imidazolidine-2,4-dione] | –
17 | – | – | – | – | – | COc1ccccc1N1CCN(CC(O)CN2C(=O)NC(C)(c3ccc(F)cc3)C2=O)CC1 (centres unmarked) [Compound 2] | Ki (α1-receptor [2]): 230 nM
18 | 144 ± 7.9 | 104 to 106 | 11.7 | 1040 | 3530 | COc1ccc(/C=C2\NC(=O)N(CC(O)CN3CCN(c4ccccc4F)CC3)C2=O)cc1 (centres unmarked) [Compound 8, (Z)-3-(3-(4-(2-fluorophenyl)piperazin-1-yl)-2-hydroxypropyl)-5-(4-methoxybenzylidene)imidazolidine-2,4-dione] | –
